In ChEMBL document CHEMBL4184304, “Design and synthesis of novel and potent GPR119 agonists with a spirocyclic structure” (Bioorg Med Chem Lett, 2018):
In brackets after ≈: the same amount, converted by molar mass.

Assays:
[1] = target: T1, Glucose-dependent insulinotropic receptor (Homo sapiens, UniProt Q8TDV5); experiment: Agonist activity at human GPR119 expressed in HEK293 cells assessed as increase in intracellular cAMP level after 30 mins; type: functional, cell-based
T1 sequence (Q8TDV5 whole entry): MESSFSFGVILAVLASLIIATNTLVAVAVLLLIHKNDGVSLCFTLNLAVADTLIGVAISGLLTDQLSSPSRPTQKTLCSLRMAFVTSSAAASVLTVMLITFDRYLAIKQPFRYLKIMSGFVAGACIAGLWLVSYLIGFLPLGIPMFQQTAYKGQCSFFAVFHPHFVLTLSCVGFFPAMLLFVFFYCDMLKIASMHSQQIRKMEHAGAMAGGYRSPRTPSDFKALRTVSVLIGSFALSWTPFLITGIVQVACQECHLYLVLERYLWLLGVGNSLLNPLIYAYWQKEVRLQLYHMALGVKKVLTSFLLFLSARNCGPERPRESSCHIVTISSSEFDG

[2] = target: T2, Glucose-dependent insulinotropic receptor (Homo sapiens) (UniProt Q8TDV5); experiment: Agonist activity at human GPR119 expressed in HEK293 cells assessed as increase in intracellular cAMP level after 30 mins relative to oleoylethanolamide; type: functional, cell-based
T2 sequence (whole entry): T1 sequence (Q8TDV5 whole entry)

[3] = Solubility in fed state simulated intestinal fluid; type: physicochemical
Cytochrome P450 2C9 = Cytochrome P450 2C9 (Homo sapiens, UniProt P11712); experiment: Inhibition of CYP2C9 (unknown origin); type: ADME
Sequence of Cytochrome P450 2C9 (P11712 whole entry): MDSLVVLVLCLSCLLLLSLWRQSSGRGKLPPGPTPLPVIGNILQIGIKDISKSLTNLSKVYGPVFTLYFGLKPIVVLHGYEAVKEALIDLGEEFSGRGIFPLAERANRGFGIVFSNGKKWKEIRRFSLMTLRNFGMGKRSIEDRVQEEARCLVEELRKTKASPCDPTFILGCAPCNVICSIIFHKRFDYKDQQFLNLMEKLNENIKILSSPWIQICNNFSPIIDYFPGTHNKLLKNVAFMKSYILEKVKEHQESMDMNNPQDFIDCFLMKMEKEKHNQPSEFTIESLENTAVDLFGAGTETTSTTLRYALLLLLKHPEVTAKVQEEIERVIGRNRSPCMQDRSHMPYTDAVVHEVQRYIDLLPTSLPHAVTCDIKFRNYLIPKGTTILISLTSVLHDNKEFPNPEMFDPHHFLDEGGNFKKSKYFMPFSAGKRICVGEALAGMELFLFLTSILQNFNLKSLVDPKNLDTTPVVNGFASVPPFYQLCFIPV

Cytochrome P450 2C8 = target: T3, Cytochrome P450 2C8 (Homo sapiens, UniProt P10632); experiment: Inhibition of CYP2C8 (unknown origin); type: ADME
T3 sequence (P10632 whole entry): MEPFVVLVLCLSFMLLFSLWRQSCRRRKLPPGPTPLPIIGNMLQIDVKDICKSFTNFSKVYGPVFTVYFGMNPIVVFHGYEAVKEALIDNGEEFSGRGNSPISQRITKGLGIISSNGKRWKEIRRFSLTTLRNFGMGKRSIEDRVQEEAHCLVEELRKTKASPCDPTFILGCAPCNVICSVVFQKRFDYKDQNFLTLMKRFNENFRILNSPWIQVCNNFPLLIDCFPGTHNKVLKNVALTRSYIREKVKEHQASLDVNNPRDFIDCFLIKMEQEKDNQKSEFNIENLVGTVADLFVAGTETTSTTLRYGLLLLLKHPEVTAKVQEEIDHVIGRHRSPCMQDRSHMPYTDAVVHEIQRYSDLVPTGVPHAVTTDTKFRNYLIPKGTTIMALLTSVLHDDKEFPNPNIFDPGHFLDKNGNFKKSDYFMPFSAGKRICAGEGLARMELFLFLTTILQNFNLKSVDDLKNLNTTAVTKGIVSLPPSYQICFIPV

Cytochrome P450 2C19 = Cytochrome P450 2C19 (Homo sapiens, UniProt P33261); experiment: Inhibition of CYP2C19 (unknown origin); type: ADME
Sequence of Cytochrome P450 2C19 (P33261 whole entry): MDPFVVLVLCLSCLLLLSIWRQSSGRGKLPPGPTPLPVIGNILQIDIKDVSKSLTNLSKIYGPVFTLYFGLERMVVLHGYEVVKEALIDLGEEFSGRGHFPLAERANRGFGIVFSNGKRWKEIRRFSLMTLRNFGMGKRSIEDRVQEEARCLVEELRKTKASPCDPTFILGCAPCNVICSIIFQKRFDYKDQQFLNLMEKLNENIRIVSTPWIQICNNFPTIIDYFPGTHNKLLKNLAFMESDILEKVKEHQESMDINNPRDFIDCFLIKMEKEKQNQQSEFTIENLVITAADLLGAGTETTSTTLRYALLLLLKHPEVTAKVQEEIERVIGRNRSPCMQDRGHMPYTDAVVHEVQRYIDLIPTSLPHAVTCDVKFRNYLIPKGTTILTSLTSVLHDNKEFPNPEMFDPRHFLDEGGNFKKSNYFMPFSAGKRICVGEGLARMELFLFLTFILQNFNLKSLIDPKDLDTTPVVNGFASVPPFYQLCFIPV

Rattus norvegicus [4] = experiment: Antidiabetic activity in Sprague-Dawley rat assessed as glucose concentration-dependent insulin secretion by measuring reduction in blood glucose AUC at 0.3 mg/kg, po pretreated for 30 mins followed by glucose-challenge measured up to 120 mins by ipGTT relative to control; type: functional; design: scale not given: the % may be the effect or the level left
Cytochrome P450 1A2 = target: T4, Cytochrome P450 1A2 (Homo sapiens, UniProt P05177); experiment: Inhibition of CYP1A2 (unknown origin); type: ADME
T4 sequence (P05177 whole entry): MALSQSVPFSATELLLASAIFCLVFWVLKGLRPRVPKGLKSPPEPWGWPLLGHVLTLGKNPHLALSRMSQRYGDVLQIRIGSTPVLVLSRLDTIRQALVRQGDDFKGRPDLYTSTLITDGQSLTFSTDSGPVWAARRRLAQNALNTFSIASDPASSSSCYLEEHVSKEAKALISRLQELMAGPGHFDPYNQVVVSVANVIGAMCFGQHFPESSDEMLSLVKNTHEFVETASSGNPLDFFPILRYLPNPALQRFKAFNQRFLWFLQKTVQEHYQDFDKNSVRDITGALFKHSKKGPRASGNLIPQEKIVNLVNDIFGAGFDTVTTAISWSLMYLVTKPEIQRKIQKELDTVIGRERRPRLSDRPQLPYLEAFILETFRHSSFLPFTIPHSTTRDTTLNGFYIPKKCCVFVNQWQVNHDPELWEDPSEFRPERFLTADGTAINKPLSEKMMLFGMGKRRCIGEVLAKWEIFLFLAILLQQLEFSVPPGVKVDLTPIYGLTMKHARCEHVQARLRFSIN

Rattus norvegicus [5] = experiment: Antidiabetic activity in Sprague-Dawley rat assessed as glucose concentration-dependent insulin secretion by measuring reduction in blood glucose AUC at 1 mg/kg, po pretreated for 30 mins followed by glucose-challenge measured up to 120 mins by ipGTT relative to control; type: functional; design: scale not given: the % may be the effect or the level left
Cytochrome P450 2D6 = Cytochrome P450 2D6 (Homo sapiens, UniProt P10635); experiment: Inhibition of CYP2D6 (unknown origin); type: ADME
Sequence of Cytochrome P450 2D6 (P10635 whole entry): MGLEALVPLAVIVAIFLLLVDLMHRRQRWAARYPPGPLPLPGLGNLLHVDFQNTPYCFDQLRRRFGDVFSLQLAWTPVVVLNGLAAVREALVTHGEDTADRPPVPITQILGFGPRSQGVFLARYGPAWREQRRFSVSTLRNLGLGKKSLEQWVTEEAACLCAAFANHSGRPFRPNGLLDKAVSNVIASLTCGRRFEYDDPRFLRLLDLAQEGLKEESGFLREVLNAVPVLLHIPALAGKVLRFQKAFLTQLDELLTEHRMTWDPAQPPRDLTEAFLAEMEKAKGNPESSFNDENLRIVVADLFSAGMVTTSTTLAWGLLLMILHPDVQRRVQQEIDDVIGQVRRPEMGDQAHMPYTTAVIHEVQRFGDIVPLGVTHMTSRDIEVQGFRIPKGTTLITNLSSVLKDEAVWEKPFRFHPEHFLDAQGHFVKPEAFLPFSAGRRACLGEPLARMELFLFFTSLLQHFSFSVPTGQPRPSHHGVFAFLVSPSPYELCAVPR

Cytochrome P450 3A4 = Cytochrome P450 3A4 (Homo sapiens, UniProt P08684); experiment: Inhibition of CYP3A4 (unknown origin); type: ADME
Sequence of Cytochrome P450 3A4 (P08684 whole entry): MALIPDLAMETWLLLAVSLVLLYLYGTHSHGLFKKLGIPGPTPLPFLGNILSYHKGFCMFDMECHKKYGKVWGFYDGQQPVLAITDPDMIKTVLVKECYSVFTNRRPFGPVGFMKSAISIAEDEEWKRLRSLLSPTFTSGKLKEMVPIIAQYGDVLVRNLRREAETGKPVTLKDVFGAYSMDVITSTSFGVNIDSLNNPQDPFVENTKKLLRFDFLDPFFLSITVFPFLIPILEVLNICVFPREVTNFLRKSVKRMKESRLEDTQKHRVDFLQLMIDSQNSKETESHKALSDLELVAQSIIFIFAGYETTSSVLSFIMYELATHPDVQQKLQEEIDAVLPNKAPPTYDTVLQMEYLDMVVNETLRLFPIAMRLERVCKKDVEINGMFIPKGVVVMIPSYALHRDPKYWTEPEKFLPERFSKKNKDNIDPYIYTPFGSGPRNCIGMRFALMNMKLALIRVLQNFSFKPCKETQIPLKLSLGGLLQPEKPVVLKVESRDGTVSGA

Structure (SMILES)	EC50 [1]	Activity [2]	further results
CC(C)(C)OC(=O)N1CCC(CCCCCCOc2ccc(S(C)(=O)=O)cc2)CC1	78 nM	72%	–
CN(C)C(=O)c1ccc(OCCCCC[C@H]2CC[C@@]3(CC2)CC(C)(C)CCO3)cc1	7 nM	110%	–
CN(C)C(=O)c1ccc(OCCCCCC2CCC3(CC2)OCCO3)cc1	88 nM	92%	–
CC(C)(C)OC(=O)N1CCC(CCCCOc2ccc(S(C)(=O)=O)cc2)CC1	209 nM	100%	–
CN(C)C(=O)c1ccc(OCCCCCC2CCN(C(=O)OC(C)(C)C)CC2)cc1	5 nM	97%	solubility [3]: 74.2 µM (≈ 31.1 µg/mL)
CC(C)OC(=O)N1CCC(CCCCCOc2ccc(C(=O)N(C)C)cc2)CC1	10 nM	102%	IC50 (Cytochrome P450 2C9): < 10000 nM; IC50 (Cytochrome P450 2C8): < 10000 nM; solubility [3]: 222 µM (≈ 89.7 µg/mL); IC50 (Cytochrome P450 2C19): < 10000 nM
CC(C)(C)OC(=O)N1CCC(CCCOc2ccc(S(C)(=O)=O)cc2)CC1	353 nM	106%	–
CN(C)C(=O)c1ccc(OCCCCC[C@H]2CC[C@@]3(CC2)CC(C)(C)CO3)cc1	4 nM	99%	–
CC(C)(C)OC(=O)N1CCC(CCCCCOc2ccc(S(C)(=O)=O)cc2)CC1	14 nM	93%	solubility [3]: 15.9 µM (≈ 6.77 µg/mL)

Second part, led by results:

EC50 [1]	Activity [2]	Structure (SMILES)	further results
27 nM	91%	CN(C)C(=O)c1ccc(OCCCCCC2CCC3(CCCCC3)CC2)cc1	–
29 nM	96%	CN(C)C(=O)c1ccc(OCCCCCC2CCC3(CC2)OCCCO3)cc1	–
132 nM	89%	CN(C)C(=O)c1ccc(OCCCCC[C@H]2CC[C@@]3(CCCO3)CC2)cc1	–
36 nM	96%	CN(C)C(=O)c1ccc(OCCCCC[C@H]2CC[C@]3(CCCCO3)CC2)cc1	–
21 nM	96%	CN(C)C(=O)c1ccc(OCCCCC[C@H]2CC[C@@]3(CCCCO3)CC2)cc1	–
511 nM	64%	CN(C)C(=O)c1ccc(OCCCCC[C@H]2CC[C@]3(CCC(C)(C)O3)CC2)cc1	–
95 nM	84%	CN(C)C(=O)c1ccc(OCCCCC[C@H]2CC[C@]3(CCCO3)CC2)cc1	–
4 nM	104%	CN(C)C(=O)c1ccc(OCCCCC[C@H]2CC[C@]3(CC2)COC(C)(C)C3)cc1	Activity (Rattus norvegicus [4]): 14%; IC50 (Cytochrome P450 1A2): > 10000 nM; Activity (Rattus norvegicus [5]): 33%; IC50 (Cytochrome P450 2D6): > 10000 nM; IC50 (Cytochrome P450 3A4): > 10000 nM; IC50 (Cytochrome P450 2C9): > 10000 nM; IC50 (Cytochrome P450 2C8): > 10000 nM; solubility [3]: 442 µM (≈ 177 µg/mL); IC50 (Cytochrome P450 2C19): > 10000 nM
